# Results as given in a melting point compilation (Tetko et al.; mined from patent text by program, amines drawn as free bases though some values may be those of a salt).
row,SMILES,melting point
1,CCOC(=O)C(Cc1ccccc1)N(CC)C(=O)OC(C)(C)C (stereo not drawn),58 to 61.5 °C
2,O=C(O)c1cn2c3c(cc(Cl)cc3c1=O)C(O)CC2 (stereo not drawn),> 250 °C
3,O=C1Cc2cc(NC(=O)C(=O)O)ccc2N1,256 °C
4,CCn1c(Nc2ccc(C)cc2)nnc1[C@@H](C)NS(=O)(=O)c1ccc(Cl)c(Cl)c1,93 to 99 °C
5,Cc1c(-c2ccccc2)n(Cc2ccccc2)c2ccc(Br)cc12,113 to 116 °C
6,O=S1(=O)NCCCN1CCc1ccncc1,124 to 125 °C
7,Cc1ccc(C23CC(C2)C(=O)N(C)C3=O)cc1,138 to 140 °C
8,Cn1cc(C(=O)C(=O)Oc2c(F)c(F)c(F)c(F)c2F)c2ccccc21,168 to 169 °C
9,O=C(NC[C@@H](O)C(=O)O)OCC1c2ccccc2-c2ccccc21,165 to 166 °C
10,CN1CCC(C(=O)Nc2ccc(CN(C)C3CCOCC3)cc2)=Cc2cc(-c3ccc(C(F)(F)F)cc3)ccc21,188 °C
11,CCOC(=O)CN1CCN(c2cc3c(cc2F)c(=O)c(C(=O)O)cn3C2CC2)CC1,192 to 194 °C
12,CN(O)C(=O)C(=Cc1ccc2ccccc2c1)c1ccc(Br)cc1,118 to 120 °C
13,CCc1ccc(S(=O)(=O)n2c(CCC(=O)O)cc3cc(Cl)ccc32)cc1,130 to 133 °C
14,Cc1cccc(C(=O)c2ccccc2F)c1N,65.5 to 67.5 °C
15,Cn1cc(C2=C(c3cn(C)c4ccc(N)cc34)C(=O)NC2=O)c2ccccc21,254 to 256 °C
16,O=S(=O)(Cl)c1ccc2oc(-c3ccncc3)cc2c1,210 °C
17,Cn1ccc(O)cc1=O,165 to 169 °C
18,COc1cc(Nc2c(C#N)cnc3cc(-c4ccc(CNCCS(=O)(=O)c5ccccc5)o4)ccc23)c(Cl)cc1Cl,123 to 128 °C
19,Cc1nn(-c2c(Cl)cc(C(F)(F)F)cc2Cl)nc1C(=O)O,185 to 186 °C
20,Nc1ncnc2c1ncn2Cc1nc2cccc(Cl)c2c(=O)n1-c1ccccc1-c1ccccc1,300 °C
21,O=C1c2ccccc2C(=O)c2c1oc1c2ccc2ccc(O)cc21,332 °C
22,Cc1cc(C)c(-c2nc(C)cc3c2ncn3Cc2ccccc2)c(C)c1,177 to 180 °C
23,COc1ccccc1C(=O)NS(=O)(=O)c1ccc(NC(=O)C2CCCC2)cc1,202 to 206 °C
24,CCCCCCCCCCCCCCCCCCCCCCOc1ccc(C(=O)O)cc1,99 to 102 °C
25,CCCCCc1csc(-c2ccc3c(c2)C=C(C(=O)Nc2ccc(CN(C)C4CCOCC4)cc2)CCS3(=O)=O)c1,204 to 206 °C

row,SMILES,melting point
1,CCS(=O)(=O)Nc1ccc(OC(=O)NC)cc1C,146 to 148 °C
2,Nc1nn2ccccc2c1N,190 °C
3,Oc1cc2onc(C3CCCCC3)c2cc1O,177 °C
4,O=C(O)CSc1cc(-c2ccccc2)nc2ccccc12,138 °C
5,Cc1cccc(C)c1-n1cnc(NCC(F)(F)F)nc1=O,212 to 213 °C
6,COc1ccc(OC)c(NC(=O)c2cc(OC)ccc2OC)c1,121 to 123 °C
7,O=C1NCCc2c(OCCCCl)cccc21,132 to 133 °C
8,Cc1cccc(N2CCN(c3ccnc4sc(C(N)=O)c(N)c34)CC2C)c1 (stereo not drawn),215 to 217 °C
9,Oc1ccc(O)c2cc3ccccc3cc12,167 to 169 °C
10,NC(=O)CC(=O)c1ccc(-c2ccc(Cl)cc2)o1,180 to 181 °C
11,COc1ccc(OC)c2c1C(=O)C=C(SCCO)C2=O,117 to 118 °C
12,N=C(CF)Nc1cccc(C(N)=O)c1,219 to 220 °C
13,CNc1nc(-c2ccncc2)n[nH]1,228 to 230 °C
14,CCSc1cc(CC=NOC)ccc1N(CC)c1nc(C)cc(C)n1,77 to 78 °C
15,COC(=O)CC1CC(c2ccc(C#N)cn2)=NO1 (stereo not drawn),97 to 98 °C
16,CCCCC(=O)Nc1cccc(NC(=O)C=C(C)OC)c1,115 °C
17,CC(C)CCc1c(-c2ccc(S(N)(=O)=O)c(F)c2)cnn(CC(F)(F)F)c1=O,153 to 156 °C
18,O=C(C1COc2ccccc2O1)N1CCNCC1 (stereo not drawn),84 to 85 °C
19,CCOC(=O)C1=C(C)NC(CSCOC(C)=O)=C(C(=O)OCC)C1c1cccc([N+](=O)[O-])c1 (stereo not drawn),118 to 121 °C
20,CC1(C(=O)O)CC1(Br)Br (stereo not drawn),108 to 109 °C
21,COc1cc(CCC=CC(=O)CCC(=O)O)cc(OC)c1OC,187 to 189 °C
22,CCCCC(=O)N(Cc1ccc(-c2ccccc2-c2nc(=O)o[nH]2)cc1)c1sccc1C(=O)OC,154 to 155 °C
23,Cc1cc(C)cc(OCC(O)CCN2CCN(c3ccccc3)CC2)c1 (stereo not drawn),88 to 90 °C
24,N#Cc1ccc(-c2ccccc2OCC2CC2)[nH]c1=O,250 to 252 °C

# Further lines, results first:
row,melting point,SMILES
1,271 to 273 °C,N=C(N)Nc1ccc(C(=O)Nc2cccc3cccnc23)cc1
2,144 to 148 °C,Cn1nc(-c2c(F)cccc2Cl)nc1-c1ccc([N+](=O)[O-])cc1Cl
3,228 °C,CC(C)(C)Sc1c(CC(C)(C)C(=O)O)n(Cc2ccc(Cl)cc2)c2ccc(OCc3cc4ccccc4cn3)cc12
4,75 to 76 °C,CC1(C)CC(=O)CC(C)(C)N1C#N
5,106 to 109 °C,CCOc1nc(C)nc(N2CCc3ccccc3CC2)c1C#N
6,175 to 177 °C,Cc1ccc(NC(N)=S)c(-c2ccccc2)c1
7,101 to 102 °C,O=C(/C=C/[C@@H]1[C@H]2CC(=O)O[C@H]2C[C@H]1OC(=O)c1ccccc1)COc1cccc(Cl)c1
8,136 to 139 °C,Cc1cccc(-c2[nH]c(C(C)C)nc2-c2cccc(-c3ccc4c(c3)CCCS4=O)c2)n1 (stereo not drawn)
9,122 °C,COc1nnc2cc(Cl)ccc2n1
10,156 to 158 °C,CN(CCCc1ccccc1)[C@H]1CC[C@H](c2ccc(O)cc2)CC1
11,222 °C,Cn1cncc1C(O)(c1ccc(Cl)cc1)c1ccc2c(c1)c(-c1cccc(Cl)c1)cc1cnnn12 (stereo not drawn)
12,< 50 °C,CCCOCOCCc1ccc(OCCCOC(=O)C2=C(C)NC(C)=C(C(=O)OC)[C@@H]2c2cccc([N+](=O)[O-])c2)cc1
13,208 to 209 °C,CCc1c[nH]c(C2Cc3ccccc3N2C(=O)Nc2ccccc2[N+](=O)[O-])n1 (stereo not drawn)
14,164 °C,COc1ccc(CC2(C(F)F)NC(=O)NC2=O)cc1 (stereo not drawn)
15,> 300 °C,Nc1nc2ccccc2c(=O)[nH]1
16,129 to 130 °C,O=C(NCc1cc(C(F)(F)F)cc(C(F)(F)F)c1)c1oc(=O)c2ncccc2c1-c1ccccc1
17,> 250 °C,Cc1c(C(=O)Nc2ccc(N3CCC(O)CC3)c(C#N)c2)c2cc(F)ccc2n1CC(=O)O
18,190 to 191 °C,Nc1ccccc1NS(=O)(=O)c1ccc([N+](=O)[O-])cc1
19,191 to 193 °C,O=C(NCc1ccccn1)Nc1cc(N2CC(Cc3ccccc3)OC2=O)ccn1 (stereo not drawn)
20,252 to 253 °C,O=c1ccn(-c2ccc(F)cc2)nc1-c1ccnn1-c1ccccc1
21,89 to 92 °C,O=C(CN1CCN(C(=O)CCCCCS)CC1)Nc1nc2ccccc2s1
22,110 to 113 °C,CN(C)CCNc1ccnc2cc(C(F)(F)F)ccc12
23,115 to 135 °C,O=S(=O)(c1[nH]c(-c2ccc(Cl)cc2)c(S(=O)(=O)C(F)(F)F)c1Br)C(F)(F)F
24,188 to 190 °C,CCS(=O)Cc1cccc(-c2nc(=O)c3ccccc3s2)n1 (stereo not drawn)
25,112 °C,COc1ccc(Cl)c(N)c1C(=O)CCl
26,174 to 176 °C,CN(C)C1CCN(CCc2ccc(-c3cccc(N)n3)cc2)CC1
27,53 °C,COC(=O)CCSC(SCCC(=O)OC)c1cccc(C=Cc2ccc3ccc(Cl)cc3n2)c1

row,melting point,SMILES
1,142 °C,CCCC(NC(=O)Nc1cccc(C)c1)C(=S)N(CC(=O)OC(C)(C)C)c1ccccc1 (racemic)
2,184 °C,CCN1CCC(C(=O)O)(S(=O)(=O)c2ccc(Oc3ccc(Cl)cc3)cc2)CC1
3,> 250 °C,Nc1nc(S(N)=O)c2[nH]cnc2n1 (stereo not drawn)
4,84.5 to 86 °C,CCC(=O)OCC1OC(n2cc(F)c(=O)n(C(=O)c3cccc(OC)c3OC)c2=O)CC1OC(=O)CC (stereo not drawn)
5,125 to 127 °C,CSC1=Nc2ccccc2N2CCN(c3ccccc3)CCN12
6,124 to 126 °C,O=C(O)/C=C(/C#Cc1ccccc1)c1ccccc1
7,113 to 117 °C,CCCc1nccn1Cc1ccc2c(c1)Cc1c(-c3ccsc3)n[nH]c1-2
8,169 to 171 °C,CNC(=O)Nc1ccc(O)cc1
9,118 °C,CNS(=O)(=O)c1ccc(Cl)c(C)c1Cl
10,182 to 183 °C,Cc1ccc(C#CC#Cc2ccc(C)cc2)cc1
11,139 to 140 °C,Cc1cc(Oc2ccc(Cl)c3c2CCCC3)c(Cl)cc1[N+](=O)[O-]
12,208 °C,NC(=O)c1[nH]cnc1OC(=O)C(=Cc1ccccc1)c1ccccc1
13,112 to 114 °C,OCCN1CCCNC1=S
14,220 °C,CCc1c(C)[nH]c(=O)c(I)c1Oc1cc(I)cc(CC#N)c1
15,118 to 125 °C,CS(=O)(=O)c1ccc(-c2cnn(-c3ccc(Oc4ccccc4)cc3)c(=O)c2-c2ccc(F)cc2)cc1
16,84 to 86 °C,COC(=O)/C=C/C=C(\C)c1ccc(OC)cc1
17,186 °C,CCCC1(C)C(=O)N(CC(=O)Nc2c(C(C)C)cccc2C(C)C)C(=O)N1c1ccc(C)cc1 (stereo not drawn)
18,127 to 129 °C,COc1cccc(C(=O)Nc2cnn(Cc3c(C)noc3C)c2)c1
19,145 to 146 °C,CCOC(=O)c1c(C)cc2c(c1C)c(=O)n(-c1ccccc1Cl)c(=O)n2CCCN(C)Cc1ccccc1
20,238 °C,C#CCn1c(=O)c2c(nc(C#Cc3cccc(OC(C)=O)c3)n2C)n(C)c1=O
21,90 to 98 °C,COc1ccc(CN(CCCNc2ncc(Cc3ccc(C)nc3)c(=O)[nH]2)c2ccccn2)cc1
22,101 to 103 °C,Cc1ccc2c(C3CCN(CC#N)CC3)cn(-c3ccc(F)cc3)c2c1
23,152 to 154 °C,CN1C(=O)N=C(NCc2ccccc2)C1=O
24,123 to 127 °C,O=C1C(Br)=CC(Br)(Br)C=C1Br
25,207 °C,O=C(c1ccc(O)cc1)c1c(-c2ccccc2)oc2ccc([N+](=O)[O-])cc12
26,166 to 168 °C,CCOC(=O)C1=C(C)NC(C)=C(C(=O)OCC)C1c1cc(Cl)ccc1Cl
27,117 to 119 °C,O=C(O)CC1(c2ccccc2)Oc2ccc(Cl)cc2O1 (stereo not drawn)
